The values below are quoted from earlier work in patent US20100166698A1, “NEW COMPOSITIONS AND METHODS FOR THE TREATMENT OF INFLAMMATION” (University of Virginia Patent Foundation, priority 2005, published 2010).

The test system of series [1] is TNF-a-stimulated PMN. The conditions noted are these: adenosine 10 μM.
Series [2] deals with TNF-α-stimulated PMN adhering to matrix proteins. The conditions noted are these: DeLa Harpe, J. Immunol. 143, 596 (1989).

In the case of `Nc1ncnc2c1ncn2[C@@H]1O[C@H](CO)[C@@H](O)[C@H]1O` [adenosine], the “effect on TNF-a-stimulated PMN adherence to matrix proteins” value in series [1] is “failed to see much of an effect”. The “oxidative burst of TNF-α-stimulated PMN adhering to matrix proteins” value in series [2] is reported as “dramatically decreases”.
